The text below walks through data of US8835112B2, “Cell transdifferentiation into brown adipocytes” (Miami University, priority 2010, dated 2014).

The test has as its system HB-EGF and ADAM 12S co-expressing cells. Nature of the test: Inhibition of adipogenesis by KB-R7785 (Oil Red O staining, morphology). The test is classed as cell-based, mouse. The protocol:
Cells were grown in the 60 mm culture dishes (Corning). After reaching a cell confluence of 50-70%, the cells were washed with 1.0 ml of PBS for three times, fixed with 1.0 ml of 10% formalin for 60 minutes at room temperature. Oil Red O stock stain solution was prepared by mixing 0.3 g oil red O in 100 ml of isopropanol overnight at room temperature and filtered by using Whatman #2 filter papers. The formalin was removed and the cells were washed with deionized water. The culture dishes were aspirated and added with 1.0 ml of 60% isopropanol working solution to incubate 5 minutes at room temperature. Oil Red O working solution was prepared by diluting 30 ml of the stock stain with 20 ml of distilled water, filtered with Whatman #1 filter papers into a Coplin jar, and covered with a lid immediately. The 60% working isopropanol was removed and the culture dishes were filled with 1.0 ml working solution of Oil Red O, incubated for 5 minutes at room temperature. The cells were rinsed with deionized water until fluid becomes clear, and counterstained with 1 ml of hematoxylin for 1 minute at room temperature. The hematoxylin was then removed from the wells, and the cells were rinsed with deionized water and imaged under a microscope (Olympus). […]

On to `CNC(=O)[C@@H](NC(=O)[C@H](CC(C)C)[C@H](C)C(=O)NO)c1ccccc1` [KB-R7785, [4-(N-hydroxyamino)-2R-isobutyl-3S-methylsuccinyl]-L-phenylglycine-N-methylamide], for which the “Reversal of brown adipocytes / adipocyte morphology” value (KB-R7785 10 μM, over 4 weeks, mouse fibroblasts stably transfected with ADAM 12S and HB-EGF) is on record as “returned the brown adipocytes to mouse fibroblasts”. The “Oil Red O staining after incubation with inhibitor” value (KB-R7785 20 μM in culture media, 3 weeks incubation, cells positive for Oil Red O before) is given as “lack Oil Red O staining”.
